Source: patent US7632525B2, “Breath freshening and oral cleansing product with magnolia bark extract in combination with surface active agents” (Wm. Wrigley Jr. Company, priority 2002, dated 2009)

How the values were obtained:
Format in all cases: cell-based
[1] = test system: bacteria from freshly-collected stimulated whole saliva (biofilm); assay: Mixed culture saliva biofilm on saliva-coated hydroxyapatite discs (medium pH and OD 600 nm)
Method: A mixed culture system that utilizes the bacteria from freshly-collected stimulated whole saliva was used. Saliva cell pellets were used to inoculate saliva-coated hydroxyapatite (S-HA) discs. The discs were placed in 24-well cell culture plates and incubated for up to 3 days. Biofilms were exposed to actives on days 2 and 3 (starting at 18 hours), and quantified on day 4. The number of bacteria was determined by spectrophotometric absorbance or optical density (OD) at 600 nm. The five phases of the experiment were: pellicle formation; bacterial attachment; biofilm growth; exposure to actives; and bacterial enumeration. To form the pellicles, HA Discs were ultrasonically washed in deionized water and air-dried, then autoclaved. The discs were placed in a 24 well plate with 1 ml 50% sterile saliva (1 part sterile whole saliva: 1 part saliva buffer, filter sterilize after preparation) for 2 hours with slow agitation at room temperature. The saliva was suctioned and then the discs were transferred to fresh wells for bacterial attachment. The discs were inoculated with salivary bacteria by one of two methods: (1) incubation with saliva bacteria suspended in 50% saliva at a standard OD for 2-h at 37° C.; after the attachment phase the discs are transferred to supplemented saliva growth medium, or (2) direct addition of bacteria with media and incubation. To form the biofilms, the bacterial suspension was removed, and the discs were transferred to fresh wells. One ml of supplemented saliva medium was added and the plate was placed in the incubator for overnight incubation and for the duration of the experiment (up to 72 hours). A stock solution of 1% Magnolia Bark Extract in 60% ethanol was prepared. […] One ml quantities of active ingredients and controls were placed into fresh wells, and the discs transferred to these wells for 5 minutes. The chlorhexidine control exposure was one minute, two times a day to mimic the standard mouth-rinse procedure. The exposure to active ingredient was carried out at 8:00 AM, 12:00 and 4:00 PM. After the timed exposure, the solution was removed and the discs washed twice with PBS and then transferred to fresh medium. For some experiments, the medium used during the day was Tryptic Soy Broth (TSB) with a 50 μl 40% sterile sucrose solution added to each well (to give a 2% sucrose solution). The medium was not replaced after the mid-day exposure. After overnight incubation (day 2), discs were exposed to controls and actives. On day 3 the biofilms were again exposed to tests and controls. On day 4 the discs were removed from the medium, the medium pH was measured to obtain an indication of metabolic activity, and the discs were placed into tubes with 2.5 ml PBS, vortexed for 20s, and then placed into the ultrasonic bath for another 20 sec. The suspension was transferred into cuvettes and the bacterial cell density determined by OD measurements at 600 nm. To evaluate the effect of Magnolia Bark Extract in combination with the surface active agent, sodium lauryl sulfate, five active ingredient solutions were prepared using the procedures described above. […] Also, the MBE solutions were prepared to have a concentration of 500 ppm. Sodium lauryl sulfate was added to two of the Magnolia Bark Extract solutions to obtain SLS concentrations of 0.05% and 0.1% in the Magnolia Bark Extract solutions. The testing with Magnolia Bark Extract described above was repeated with the five solutions.

S. mutans = assay: MIC and fractional inhibitory index of MBE/surface active agent combinations on S. mutans; details: 24 hours at 37° C.
Method: (§1) To evaluate the germ-kill efficacy and synergist effect when two or more germ-kill actives are combined, testing was performed to determine the ratio of MBE to surface active agent. […] These dilutions were inoculated with representative oral microorganisms, or incubated saliva, and incubated for 24 hours at 37° C. For each surface active agent, the lowest dilution that was not turbid was registered as the MIC.

incubated saliva = assay: MIC of surface active agents and emulsifiers on incubated saliva; details: for MIC (ppm): incubated saliva, 24 hours at 37° C.; for germ-kill efficacy: assessment in words of Table 9
Method: as §1, with “agent. The germ-kill active and/or surface active agent was dissolved in ethanol or sterile water to give an initial concentration 0.1% to 1%.” for “agent.”, “MIC. The MBC was determined by transferring 10 microliter of liquid from non-turbid tubes to fresh growth media and incubated for 48 hrs.” for “MIC.”

Molecule	MIC (ppm) (incubated saliva)	germ-kill efficacy (incubated saliva)	further results
[H]/N=C(\N/C(=N/[H])NCCCCCCNC(=N)NC(=N)Nc1ccc(Cl)cc1)Nc1ccc(Cl)cc1 [CHX, chlorhexidine]	–	–	% OD reduction ([1]; OD 600 nm vs PBS control, CHX 0.12%, one minute, two times a day): 84%; % OD reduction ([1]; SLS combination experiment, OD 600 nm, CHX 0.1% (1000 ppm)): 94%; pH ([1]; SLS combination experiment, CHX 0.1% (1000 ppm)): 8.8; pH ([1]; medium pH day 4, CHX 0.12%, exposure one minute, two times a day): 8.8
N=C(NCCCCCCNC(=N)NC(=N)Nc1ccc(Cl)cc1)NC(=N)Nc1ccc(Cl)cc1.O=C(O)[C@H](O)[C@@H](O)[C@H](O)[C@H](O)CO.O=C(O)[C@H](O)[C@@H](O)[C@H](O)[C@H](O)CO [Chlorhexidine gluconate, reference compound]	2 ppm	–	MIC/ppm (S. mutans): 2 ppm
CCCCCCCCCCCCOS(=O)(=O)[O-].[Na+] [SLS, sodium lauryl sulfate]	–	good germ-kill surface active agents	% OD reduction ([1]; SLS combination experiment, OD 600 nm, 1000 ppm): 61%; pH ([1]; SLS combination experiment, 1000 ppm): 5.7
CCCCCCCCCCCC(=O)OCCOCCOCCOCCOCCOCCOCCOCCOCCOCCOCCOCCOCCOCCOCCOCCOCCOCCOCCOCCOCC(OCCOCCOCCOCCOCCOCCOCCOCCOCCOCCOCCOCCOCCOCCOCCOCCOCCOCCOCCOCCO)C1OCC(OCCOCCOCCOCCOCCOCCOCCOCCOCCOCCOCCOCCOCCOCCOCCOCCOCCOCCOCCOCCO)C1OCCOCCOCCOCCOCCOCCOCCOCCOCCOCCOCCOCCOCCOCCOCCOCCOCCOCCOCCOCCO (stereo not shown) [Tween 20, Polysorbate 20]	–	weak or non germ-kill actives	–
Cocamidopropyl Betaine	–	good germ-kill surface active agents	–
Sodium Brasslate	500 ppm	moderate germ-kill efficacy	–
Sodium Stearoyl Lactylate	>3000 ppm	weak or non germ-kill actives	–
Sucrose Distearate	>500 ppm	weak or non germ-kill actives	–
Sucrose Stearate	>500 ppm	weak or non germ-kill actives	–
